# Assay results reported in patent publication US20220024963A1, “SALT OF TRIPHOSPHATE PHOSPHORAMIDATES OF NUCLEOTIDES AS ANTICANCER COMPOUNDS” (priority 2019, published 2022).
# Legend:
# CCRF-CEM (ALL) = assay: cells; type: cell-based; conditions: for IC50: Homo sapiens, 72 h treatment, AlamarBlue; for Survival @ 25 nM / Survival @ 50 nM / Survival @ 125 nM: percentage of cell survival, 72 h
# From the text: (§1) The efficacy (evaluated by IC50) of clofarabine and 3 different compounds representing different class of clofarabine ProTides (monophosphate, diphosphate and triphosphate molecules) was compared.
# (§2) The tested cancer cell lines were acute lymphoblastic leukaemia (ALL), acute myeloid leukaemia (AML) and lymphoma: CCRF-CEM (ALL), HL60 (AML), KG1 (AML), OCI-AML3 (AML) and RL (lymphoma), grown in suspension, in RPMI-1640 media, supplemented with 10% FBS serum and 1% pen strep, except for KG1 cell line for which FBS was 20%.
# (§3) For all experiments, cells were plated on a 96 well plate, at a density of 10,000 cells/well in 50 μL media. Dilutions from stock concentration to working solutions were prepared in media; at twice the required concentration and 50 μL was added per well (this achieving the final concentrations described in results below). Control untreated received 50 μL of plain media. After 66 h 10 μL of resazurin was added per well (dilution 1:10). Cells were then incubated with for up to 6 h. After 72 h treatment, cytotoxicity assay (AlamarBlue™−resazurin dye) was performed to determine cell survival. Plates were scanned with a BioHit800 plate reader and data were analysed with Excel and GraphPad Prism.
# (§4) A low IC50 indicates greater potency under these laboratory conditions.
# (§5) Clofarabine, A, 5a, 5b, 5c, 5d, 5e and 5f were tested against CCRF-CEM and OCI-AML3 cells. Data is represented as the percentage ofcell survival for each ofthe different concentrations to which cells were exposed, rather than calculating a formal IC50 from only two or three datapoints.
# OCI-AML3 (AML) = assay: cells; type: cell-based; conditions: for IC50: Homo sapiens, OCI-AML-3, OCI-AML3, 72 h treatment, AlamarBlue; for Survival @ 50 nM: OCI-AML3, 50 nM; for Survival @ 50 nM / Survival @ 125 nM: percentage of cell survival, 72 h; for Survival @ 125 nM: OCI-AML3, 125 nM
# From the text: as §1, §2, §3, §4, §5
# HL60 (AML) = assay: Cytotoxicity assay (AlamarBlue - resazurin dye), 72 h (Example B); type: cell-based; conditions: Homo sapiens, HL-60, HL60, 72 h treatment
# From the text: as §1, §2, §3, §4
# KG1 (AML) = assay: as above; type: cell-based; conditions: KG1, 72 h treatment
# From the text: as §1, §2, §3, §4
# RL (lymphoma) = assay: as above; type: cell-based; conditions: 72 h treatment
# From the text: as §1, §2, §3, §4
# [1] = tested on: CCRF-CEM and OCI-AML3 cells; type: cell-based; conditions: both cell lines
# Experimental: as §3, §5
# CCRF-CEM = assay: In vitro viability assay, CellTiterGlo, 72 h (Example A); type: cell-based
# Experimental: (§6) A compound of the invention was assayed for cytotoxic activity in an array of different solid tumours and haematological malignancies using the following assay.
# (§7) In vitro viability assay was performed to assess the effects of compounds on cell viability in selected cell lines over 72 h using the CellTiterGlo (CTG, Promega-G7573) assay. The tests were performed in duplicates with treatment of compounds at 9 points, 3.16 folds titration in 96 well plates over ˜72 h. The compound starting concentrations were 198 μM. Cell viability assay using CellTiterGlo in 96-well plate were performed. Compound treatment 72 h, standard growth conditions, duplicates. Compounds were dissolved to 40 mM with thawed […]. Compounds were serially diluted at 3.16 fold in thawed DMSO and warmed to 37° C. before being dissolved in media (2 μL+200 μL). After compounds were dissolved in media, media containing compounds were warmed to 37° C. in incubator and then compounds in media were added to cell plates (50 μL+50 μL) in duplicates. The compounds' final concentrations were from 198 μM to 19.8 nM. All compound solubilities were checked and recorded again, then the plates were transferred to CO2 tissue culture incubator immediately and incubated for 3 days. DMSO final concentration is 0.5%.
# HL-60 = assay: as above; type: cell-based; conditions: HL-60, CellTiterGlo
# Experimental: as §6, §7
# HT29 = assay: as above; type: cell-based
# Experimental: as §6, §7
# HepG2 = assay: as above; type: cell-based
# Experimental: as §6, §7
# K562 = assay: as above; type: cell-based
# Experimental: as §6, §7
# KG-1 = assay: as above; type: cell-based; conditions: KG-1, CellTiterGlo
# Experimental: as §6, §7
# MOLT-4 = assay: as above; type: cell-based; conditions: MOLT-4, CellTiterGlo
# Experimental: as §6, §7
# RL = assay: as above; type: cell-based
# Experimental: as §6, §7
# RPMI-8226 = assay: as above; type: cell-based, Human; conditions: RPMI-8226, CellTiterGlo
# Experimental: as §6, §7
# [2] = Homo sapiens, read-out: Ab EC50
Compound,IC50 (CCRF-CEM (ALL)) [nM],IC50 (OCI-AML3 (AML)) [nM],IC50 (HL60 (AML)) [nM],IC50 (KG1 (AML)) [nM],IC50 (RL (lymphoma)) [nM],Survival @ 25 nM (CCRF-CEM (ALL)) [%],Survival @ 50 nM (CCRF-CEM (ALL)) [%],Survival @ 125 nM (CCRF-CEM (ALL)) [%],Survival @ 50 nM (OCI-AML3 (AML)) [%],Survival @ 125 nM (OCI-AML3 (AML)) [%],further results
C[C@H](NP(=O)(Oc1ccccc1)OP(=O)(O)OC[C@H]1O[C@@H](n2cnc3c(N)nc(Cl)nc32)C(F)[C@H]1O)C(=O)OCc1ccccc1 (some centres unmarked) [B],82.5,121,71.9,267,153,,,,,,
"(2S)-Cyclohexyl 2-(((((((((2R,3R,4S,5R)-5-(6-amino-2-chloro-9H-purin-9-yl)-4-fluoro-3-hydroxytetrahydrofuran-2-yl)methoxy)(hydroxy)phosphoryl)oxy)(hydroxy)phosphoryl)oxy)(phenoxy)phosphoryl)amino)-3-methylbutanoate di-triethylammonium salt [Compound 5e]",,,,,,99,75,90,100,95,
"(2S)-Methyl 2-(((((((((2R,3R,4S,5R)-5-(6-amino-2-chloro-9H-purin-9-yl)-4-fluoro-3-hydroxytetrahydrofuran-2-yl)methoxy)(hydroxy)phosphoryl)oxy)(hydroxy)phosphoryl)oxy)(phenoxy)phosphoryl)amino)-4-(methylthio)butanoate di-triethylammonium salt [Compound 5d]",,,,,,92,16,14,61,29,efficacy compared to A and clofarabine [1]: superior efficacy
C[C@H](NP(=O)(OC[C@H]1O[C@@H](n2cnc3c(N)nc(Cl)nc32)C(F)[C@H]1O)Oc1ccccc1)C(=O)OCc1ccccc1 (some centres unmarked) [A],275,253,91,1760,399,96,100,100,99,96,"Top Inhibit (CCRF-CEM): 99%; EC50 (CCRF-CEM; [2]): 80 nM; Top Inhibit (HL-60): 95%; EC50 (HL-60; [2]): 220 nM; Top Inhibit (HT29): 86%; EC50 (HT29; Homo sapiens, HT-29, read-out: Ab EC50): 1730 nM; Top Inhibit (HepG2): 99%; EC50 (HepG2; [2]): 7630 nM; Top Inhibit (K562): 85%; EC50 (K562; [2]): 27300 nM; EC50 (KG-1; [2]): 440 nM; Top Inhibit (KG-1): 93%; EC50 (MOLT-4; [2]): 250 nM; Top Inhibit (MOLT-4): 100%; Top Inhibit (RL): 90%; EC50 (RL; [2]): 4260 nM; EC50 (RPMI-8226; [2]): 9200 nM; Top Inhibit (RPMI-8226): 83%"
